Measurements taken from article PMC12165992, “Biochemical characterization of lipase from Cryptococcus albidus (D24) and its application in sugar fatty acid ester synthesis” (Archives of Microbiology, 2025).

Tested on: T1, D24 lipase
T1 construct: native extracellular lipase from culture supernatant, only partially purified (dialysed, 10 kDa cut-off concentrated)
Test: spectrophotometric p-nitrophenyl palmitate hydrolysis, Lineweaver-Burk
Format: biochemical, Naganishia albida
Settings: pH 5.6, 37 °C; partially purified native enzyme, free

- Km: 0.158 µM
Compound: CCCCCCCCCCCCCCCC(=O)Oc1ccc([N+](=O)[O-])cc1 [p-nitrophenyl palmitate]
